Assay results from US12606556B2, “TYK-2 inhibitor” (BEIGENE, LTD., priority 2020, dated 2026).

Experiments:
[1] = target: T1, TYK2-JH2 (aa 575-869, in-house) protein (Homo sapiens, UniProt P29597); assay: TYK2-JH2 biochemical assay (HTRF, blocking of TYK2-JH2 protein with its probe); type: binding; settings: for IC50: HTRF, 0.2 nM recombinant TYK2-JH2, Probe 1; for Biochemical assay Selectivity fold (TYK2/JAK1): TYK2-JH2 vs JAK1-JH2 biochemical IC50
T1 construct: TYK2-JH2 (aa 575-869, in-house) protein; made in house
T1 sequence (P29597 575-869): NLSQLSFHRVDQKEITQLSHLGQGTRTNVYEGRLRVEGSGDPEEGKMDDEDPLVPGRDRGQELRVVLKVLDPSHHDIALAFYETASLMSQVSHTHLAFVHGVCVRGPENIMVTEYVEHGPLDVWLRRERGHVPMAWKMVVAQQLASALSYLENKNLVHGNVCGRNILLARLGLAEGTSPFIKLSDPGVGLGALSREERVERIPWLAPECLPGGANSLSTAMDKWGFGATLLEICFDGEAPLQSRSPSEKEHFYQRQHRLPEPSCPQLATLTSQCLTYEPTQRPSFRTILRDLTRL
Experimental: Assay A: TYK2-JH2 Biochemical Assay
Compounds disclosed herein were tested for blocking of TYK2-JH2 (aa 575-869, in-house) protein with its probe in an assay based on Homogeneous Time Resolved Fluorescence.
Compound dilution is done according to the following protocol: (1) Prepare 500× compounds solution in DMSO from 500 uM by 5-fold dilution, total 10 doses were included; (2) Prepare 10× compounds solution in an assay buffer containing 20 mM HEPES, pH 7.5, 10 mM MgCl2, 0.005% BSA, 2 mM DTT, 0.015% Brij-35 by transferring 1 μl serial 500× stock solution into 49 μl assay buffer. 4 μl of 0.2 nM recombinant TYK2-JH2 protein was pre-incubated with 1 μl of 10×serial dilution of compounds at room temperature for 0.5 hour. Then 5 μl of 10 nM in-house Probe 1 (6-((3,5-dimethylphenyl)amino)-8-((4,26-dioxo-30-((3aS,4S,6aR)-2-oxohexahydro-1H-thieno[3,4-d]imidazol-4-yl)-7,10,13,16,19,22-hexaoxa-3,25-diazatriacontyl)amino)imidazo[1,2-b]pyridazine-3-carboxamide, KD=10 nM), 5 μl Mab Anti-6His Tb cryptate Gold (Cat: 61HI2TLB, Cisbio Bioassays) and Streptavidin-XL665(Cat: 610SAXLB, Cisobio Bioassays) mixture were added to plate and further incubated at room temperature for 1 hour. The HTRF signals (ex337 nm, em620 nm/665 nm) were read on BMG PHERAstar FS instrument. The inhibition percentage of TYK2 interaction with its probe in presence of increasing concentrations of compounds was calculated based on the ratio of fluorescence at […]. The IC50 for each compound was derived from fitting the data to the four-parameter logistic equation by Dotmatics.

[2] = target: T2, JAK1-JH2 protein (aa 561-860, in-house) (Homo sapiens, UniProt P23458); assay: JAK1-JH2 biochemical assay (HTRF, blocking of JAK1-JH2 protein with its probe); type: binding; settings: 1.17 nM recombinant JAK1-JH2, Probe 2
T2 construct: JAK1-JH2 protein (aa 561-860, in-house); made in house
T2 sequence (P23458 561-860): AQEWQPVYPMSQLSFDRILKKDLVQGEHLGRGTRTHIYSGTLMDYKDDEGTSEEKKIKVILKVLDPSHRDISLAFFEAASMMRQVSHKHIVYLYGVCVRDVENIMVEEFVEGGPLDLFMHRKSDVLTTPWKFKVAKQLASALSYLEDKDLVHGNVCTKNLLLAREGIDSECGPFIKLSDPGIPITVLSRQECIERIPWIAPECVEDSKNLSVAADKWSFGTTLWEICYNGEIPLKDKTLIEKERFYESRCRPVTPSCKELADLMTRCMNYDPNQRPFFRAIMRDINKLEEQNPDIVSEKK
Experimental: Assay B: JAK1-JH2 Biochemical Assay
Compounds disclosed herein were tested for blocking of JAK1-JH2 protein (aa 561-860, in-house) with its probe in an assay based on Homogeneous Time Resolved Fluorescence. Compound dilution is done according to the following protocol: (1) Prepare 500× compounds solution in DMSO from 500 uM by 5-fold dilution, total 10 doses were included; (2) Prepare 10× compounds solution in an assay buffer containing 20 mM HEPES, pH 7.5, 10 mM MgCl2, 0.005% BSA, 2 mM DTT, 0.015% Brij-35 by transferring 1 μl serial 500× stock solution into 49 μl assay buffer. 4 μL of 1.17 nM recombinant JAK1-JH2 protein was pre-incubated with 1 μl of 10×serial dilution of compounds at room temperature for 0.5 hour. […] The HTRF signals (ex337 nm, em620 nm/665 nm) were read on BMG PHERAstar FS instrument. The inhibition percentage of JAK1 interaction with its probe in presence of increasing concentrations of compounds was calculated based on the ratio of fluorescence at 615 nm to that at 665 nm. The IC50 for each compound was derived from fitting the data to the four-parameter logistic equation by Dotmatics.

[3] = system: JAK2, TYK2/p-STAT4 (Tyr693) activated by IL-12 in NK-92 cell line; assay: IL-12-JAK2, TYK2/p-STAT4 (Tyr693) inhibition cellular assay; type: cell-based; settings: for IC50: NK92, 0.5 h, NK-92 cells, IL-12 40 ng/ml, 30 min, read-out: Cellular assay pSTAT4/IL-12 IC50; for Cellular assay Selectivity fold (TYK2/JAK1): pSTAT4/IL-12 vs pSTAT3/IL-6 cellular IC50
From the text: Assay C: IL-12-JAK2, TYK2/p-STAT4 (Tyr693) Inhibition IC50 Cellular Assay
To evaluate the inhibition effect of compounds disclosed herein on JAK2, TYK2/p-STAT4 (Tyr693) activated by IL-12 in NK-92 cell line, NK-92 cells were collected and washed 3 times by DPBS and resuspended in MEM-α(GIBCO,Cat #12561056) with 10% FBS (Gibco, Cat #10099, Lot #1891605), without IL-2 (R&D systems,Cat #202-IL), starved overnight. Cells were collected and resuspended in 1640 medium (phenol red free, Gibco, Cat #11835-030) with 0.1% BSA, and 12.5 μl/5×10^4/well cell suspension were seeded to the 96-well plate (Corning, Cat #3799). Then cells were treated with compounds diluted in 0.2% DMSO 1640 medium, at 37° C., 1 h. Dilution is done according to the following protocol: (1) make 500× compounds solution in DMSO from 5 mM by 4-fold dilution, total 8 doses were included; (3) make 2× compounds solution in assay medium by transferring 0.5 μl serial 500× stock solution into 125 μl assay medium; (4) 15 μl of 2× serial solution is added to cells and incubate at 37° C. for 1 h, the final compound conc. is 10000,2500,625,156.25,39,9.8,2.4 and 0.61 nM, respectively. After 1 h, cells were treated with 2.5 μl medium containing IL-12 at 37° C. (R&D systems, Cat #219-IL-005, final conc.40 ng/ml), 30 min. Following cells were lysed with 7.5 μl lysis buffer at RT, shaking on shaker for 1 h. 10 μL of cell lysate were transferred to a PE 384-well Proxiplate detection plate, and 5 μL of pre-mixed Alphascreen beads were added to each well. Covered the plate with a plate sealer, span 1000 rpm for 1 min, mix, Incubated overnight at room temperature. Read on BMG PheraStar with Alphascreen protocol. IC 50 values were calculated by fitting dependent data to the four-parameter logistic model using dotmatics software. The assay was performed by using AlphaLISA SureFire Ultra p-STAT4 (Tyr693) Assay Kit—High Volume (PE, Cat #ALSU-PST4-A-HV).

[4] = system: JAK1/p-STAT3(Tyr705) activated by IL-6 in TF-1 cell line; assay: IL-6-JAK1/p-STAT3(Tyr705) inhibition cellular assay; type: cell-based; settings: Homo sapiens, 0.5 h; TF-1 cells, IL-6 50 ng/ml, 30 min; read-out: Cellular assay pSTAT3/IL-6 IC50
From the text: Assay D: IL-6-JAK1/p-STAT3(Tyr705) Inhibition IC50 Cellular Assay
To evaluate the inhibition effect of compounds disclosed herein on JAK1/p-STAT3(Tyr705) activated by IL-6 in TF-1 cell line, TF-1 cells were collected and washed 3 times by DPBS and resuspended in RPMI-1640 (phenol red free, Gibco, Cat #11835-030) with 0.1% FBS (Gibco, Cat #10099, Lot #1891605), without GM-CSF(R&D systems,Cat #215-GM-050), starved overnight. Cells were collected and resuspended in 1640 medium (phenol red free, Gibco, Cat #11835-030) with 0.1% BSA, and 12.5 μl/10×10^4/well cell suspension were seeded to the 96-well plate (Corning, Cat #3799). Then cells were treated with compounds diluted in 0.2% DMSO 1640 medium, at 37° C., 1 h. Dilution is done according to the following protocol: (1) make 500× compounds solution in DMSO from 5 mM by 4-fold dilution, total 8 doses were included; (3) make 2× compounds solution in assay medium by transferring 0.5 μl serial 500× stock solution into 125 μl assay medium; (4) 15 μl of 2× solution is added to cells and incubate at 37° C. for 1 h, the final compound conc. is 10000,2500,625,156.25,39,9.8,2.4 and 0.61 nM, respectively. After 1 h, cells were treated with 2.5 μl medium containing IL-6 at 37° C. (R&D systems, Cat #206-IL-010, final conc.50 ng/ml), 30 min. Following cells were lysed with 10 μl lysis buffer at RT, shaking on shaker for 1 h. 16 μL of cell lysate were transferred to a PE 384-well HTRF detection plate, and 4 μL of pre-mixed HTRF antibodies were added to each well. Covered the plate with a plate sealer, span 1000 rpm for 1 min, mix, Incubated overnight at room temperature. Read on BMG PheraStar with HTRF protocol (337 nm-665 nm-620 nm). IC 50 values were calculated by fitting dependent data to the four-parameter logistic model using dotmatics software. The assay was performed by using HTRF Phospho-STAT3(Tyr705) Cellular Assay Kit (Cisbio, Cat #62AT3PEG).

With CNC(=O)c1nnc(NC(=O)C2CC2)cc1Nc1nc2ccccc2o1 [Example A1, 4-(benzo[d]oxazol-2-ylamino)-6-(cyclopropanecarboxamido)-N-methylpyridazine-3-carboxamide] the IC50 [1] was 456 nM, the “Biochemical assay Selectivity fold (TYK2/JAK1)” value [1] was over 22 fold and the IC50 [2] was over 10000 nM.

In the case of CNC(=O)c1nnc(NC(=O)C2CC2)cc1Nc1nc2ccccc2n1C [Example A2, 6-(cyclopropanecarboxamido)-N-methyl-4-((1-methyl-1H-benzo[d]imidazol-2-yl)amino) pyridazine-3-carboxamide], the IC50 [1] is reported as 34 nM, the “Biochemical assay Selectivity fold (TYK2/JAK1)” value [1] is reported as 5 fold and the IC50 [2] is reported as 174 nM.

With CNC(=O)c1nnc(NC(=O)C2CC2)cc1Nc1nc2ccccc2[nH]1 [Example A3, 4-((1H-benzo [d]imidazol-2-yl)amino)-6-(cyclopropane-carboxamido)-N-methyl-pyridazine-3-carboxamide] the IC50 [1] was 1.4 nM, the “Biochemical assay Selectivity fold (TYK2/JAK1)” value [1] was 2.6 fold and the IC50 [2] was 3.7 nM.

For CNC(=O)c1nnc(NC(=O)C2CC2)cc1Nc1nc2ccccn2n1 [Example A4, 4-([1,2,4]triazolo[1,5-a]pyridin-2-ylamino)-6-(cyclopropane-carboxamido)-N-methyl-pyridazine-3-carboxamide], the IC50 [1] was 0.16 nM, the “Biochemical assay Selectivity fold (TYK2/JAK1)” value [1] was 8 fold and the IC50 [2] was 1.3 nM. The IC50 [3] was 104 nM, the “Cellular assay Selectivity fold (TYK2/JAK1)” value [3] was 23 fold and the IC50 [4] was 2410 nM.

In the case of CNC(=O)c1nnc(NC(=O)C2CC2)cc1Nc1nc2ccc(P(C)(C)=O)cn2n1 [Example A5, 6-(cyclopropanecarboxamido)-4-((6-(dimethylphosphoryl)-[1,2,4]triazolo[1,5-a]pyridin-2-yl)amino)-N-methyl-pyridazine-3-carboxamide], the IC50 [1] is reported as 0.56 nM, the “Biochemical assay Selectivity fold (TYK2/JAK1)” value [1] is reported as 23 fold and the IC50 [2] is reported as 13 nM. The IC50 [3] was over 10000 nM and the IC50 [4] was over 10000 nM.

CNC(=O)c1nnc(NC(=O)C2CC2)cc1Nc1nc2cc(OC)c(N3CCC3)cn2n1 [Example B1, 4-((6-(azetidin-1-yl)-7-methoxy-[1,2,4]triazolo[1,5-a]pyridin-2-yl)amino)-6-(cyclopropanecarboxamido)-N-methylpyridazine-3-carboxamide] was tested, and the IC50 [1] was 0.936 nM, the “Biochemical assay Selectivity fold (TYK2/JAK1)” value [1] was 2 fold and the IC50 [2] was 2.03 nM. The IC50 [3] was 3530 nM, the “Cellular assay Selectivity fold (TYK2/JAK1)” value [3] was over 3 fold and the IC50 [4] was over 10000 nM.

With CNC(=O)c1nnc(NC(=O)C2CC2)cc1Nc1nc2ccc(OC3CN(C(=O)OC(C)(C)C)C3)cn2n1 [Example C1, tert-butyl 3-((2-((6-(cyclopropanecarboxamido)-3-(methylcarbamoyl)pyridazin-4-yl)amino)-[1,2,4]triazolo[1,5-a]pyridin-6-yl)oxy)azetidine-1-carboxylate] the IC50 [1] was 0.1 nM, the “Biochemical assay Selectivity fold (TYK2/JAK1)” value [1] was 13 fold and the IC50 [2] was 1.3 nM.

With CNC(=O)c1nnc(NC(=O)C2CC2)cc1Nc1nc2ccc(OC3CNC3)cn2n1 [Example C2, 4-((6-(azetidin-3-yloxy)-[1,2,4]triazolo[1,5-a]pyridin-2-yl)amino)-6-(cyclopropanecarboxamido)-N-methylpyridazine-3-carboxamide] the IC50 [1] was 0.14 nM, the “Biochemical assay Selectivity fold (TYK2/JAK1)” value [1] was 9 fold and the IC50 [2] was 1.2 nM.

CNC(=O)c1nnc(NC(=O)C2CC2)cc1Nc1nc2ccc(OC3CN(S(C)(=O)=O)C3)cn2n1 [Example C3, 6-(cyclopropanecarboxamido)-N-methyl-4-((6-((1-(methylsulfonyl)azetidin-3-yl)oxy)-[1,2,4]triazolo[1,5-a]pyridin-2-yl)amino)pyridazine-3-carboxamide] was tested, and the IC50 [1] was 0.08 nM, the “Biochemical assay Selectivity fold (TYK2/JAK1)” value [1] was 15 fold and the IC50 [2] was 1.2 nM. The IC50 [3] was 68.8 nM, the “Cellular assay Selectivity fold (TYK2/JAK1)” value [3] was over 145 fold and the IC50 [4] was over 10000 nM.

CNC(=O)c1nnc(NC(=O)C2CC2)cc1Nc1nc2ccc(N3CCC(N4CCC4)CC3)cn2n1 [Example E11, 4-((6-(4-(azetidin-1-yl)piperidin-1-yl)-[1,2,4]triazolo[1,5-a]pyridin-2-yl)amino)-6-(cyclopropanecarbox-amido)-N-methyl-pyridazine-3-carboxamide] was tested, and the IC50 [1] was 0.18 nM, the “Biochemical assay Selectivity fold (TYK2/JAK1)” value [1] was 32 fold and the IC50 [2] was 5.8 nM.
